# Reference: US20140378474A1, “5-membered heteroarylcarboxamide derivatives as plasma kallikrein inhibitors” (NOVARTIS AG, priority 2012, published 2014)
# Biological target: T1, Human plasma kallikrein (Homo sapiens, UniProt P03952)
# T1 construct: purchased Kordia (Leiden, Netherlands) batch HPKA 1303
# Test: In vitro inhibition of plasma kallikrein (fluorogenic substrate DPro-Phe-Arg-(Rh110)-γGlu-OH)
# Type: biochemical
# Conditions: human plasma kallikrein nominally 12 pM, substrate 0.5 μM, 1 hour pre-incubation at room temperature, read after 1 hour (t=60 min)
# Method: In Vitro Inhibition of Plasma Kallikrein
# The fluorogenic substrate DPro-Phe-Arg-(Rh110)-γGlu-OH (where DPro is the amino acid d-proline, Rh110 is the fluorophore rhodamine 110 and γGlu is a […] linked to Rh110 via the gamma-carbonyl function; from Biosyntan, Berlin, Germany), being based on the chromogenic substrate described in Gallimore et al (Thromb Res 25, 293-298, 1982), was dissolved in DMSO at 5 mM and stored at −80° C. All other chemicals were of analytical grade.
# Human plasma kallikrein was purchased from Kordia (Leiden, Netherlands, batch HPKA 1303) in lyophilized form.
# The protein solution was reconstituted from the lyophilisate by addition of deinonized water. The resulting stock solution comprised the protein at a concentration of 0.17 mg/ml in 4 mM sodium acetate/HCl and 150 mM NaCl at pH 5.3. The stock solution was stored in aliquots at −80° C. Enzymatic reactions were conducted in ‘assay buffer’, comprising 50 mM Hepes/NaOH at pH 7.8, 150 mM NaCl, 1 mM EDTA and 0.05% (w/v) CHAPS.
# Both, enzyme and substrate were diluted in assay buffer.
# All protein and peptide containing solutions were handled in siliconized tubes (Life Systems Design, Merenschwand, Switzerland). The compound solutions as well as the enzyme and the substrate solutions were transferred to 384-well plates (black Cliniplate; cat. no. 95040020 Labsystems Oy, Finland) by means of a CyBi-Well 96-channel pipettor (CyBio AG, Jena, Germany). Plate measurements were conducted by the means of a Safire2 reader (TECAN, Maennedorf, Switzerland). The Safire2 is a monochomator-based instrument and wavelengths of 485 nm and 535 nm were taken for fluorescence excitation and emission acquisition, respectively. The bandwidths were set to 10 nm in both the excitation and the emission path. The fluorescence in each well was excited by three flashes per measurement.
# For the determination of IC50 values, the assays were performed at room temperature in 384-well plates with a total assay volume of 25.25 μl per well.
# The test compound was dissolved in 90% (v/v) DMSO/water. For the assays, […] of the 90% (v/v) DMSO/water solution or compound solution were added per well, followed by the addition of 12.5 μl protease solution (protease in assay buffer). The final assay concentration of the human plasma kallikrein was nominally 12 pM, the 11 compound concentrations in the dilution series were in the range form 1 nM to 100 μM. After 1 hour of pre-incubation at room temperature, the reactions were started by the addition of 12.5 μl substrate solution (in assay buffer, final assay concentration was 0.5 μM). After the addition of the substrate solution, the final DMSO concentration in the assay was 0.9% (v/v). The effect of the compound on the enzymatic activity was obtained from the linear part of the progress curves and determined after 1 hour (t=60 min). The IC50 value was calculated from the plot of percentage of inhibition vs. inhibitor concentration by a logistics fit according to the following equation:
# where y is the %-inhibition at the inhibitor concentration, x. A1 is the lowest inhibition value, i.e. 0%, and A2 the maximum inhibition value, i.e. 100%. The exponent, p, is the Hill coefficient. The curve fitting was conducted with the non-linear regression routine of the analysis software Origin 7.5SR6 (Origin Lab Corporation).
# T1 sequence (P03952 391-638 limits assumed): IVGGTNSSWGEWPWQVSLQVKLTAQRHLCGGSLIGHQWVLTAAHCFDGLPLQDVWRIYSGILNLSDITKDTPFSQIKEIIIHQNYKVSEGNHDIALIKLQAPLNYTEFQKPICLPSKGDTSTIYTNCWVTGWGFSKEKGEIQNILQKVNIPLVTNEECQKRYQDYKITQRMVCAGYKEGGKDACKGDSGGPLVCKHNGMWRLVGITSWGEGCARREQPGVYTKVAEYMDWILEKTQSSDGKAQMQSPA
# T1 sequence (P03952 20-390 partner limits assumed): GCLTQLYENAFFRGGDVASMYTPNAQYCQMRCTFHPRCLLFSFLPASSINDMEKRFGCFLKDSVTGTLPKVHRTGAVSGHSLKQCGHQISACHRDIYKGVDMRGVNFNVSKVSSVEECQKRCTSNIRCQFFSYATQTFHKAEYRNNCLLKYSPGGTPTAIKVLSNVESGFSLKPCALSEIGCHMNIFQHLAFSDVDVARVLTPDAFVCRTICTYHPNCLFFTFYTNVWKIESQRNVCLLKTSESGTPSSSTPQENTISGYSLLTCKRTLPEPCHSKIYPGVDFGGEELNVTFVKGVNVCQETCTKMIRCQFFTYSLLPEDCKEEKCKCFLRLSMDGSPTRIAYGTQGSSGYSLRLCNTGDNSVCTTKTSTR
row,Compound,IC50
1,"Cc1ccc2cc(Cn3cc(C(=O)NCc4n[nH]c5ccc(Cl)cc45)cn3)ccc2n1 [Example 20, N-((5-chloro-1H-indazol-3-yl)methyl)-1-((2-methylquinolin-6-yl)methyl)-1H-pyrazole-4-carboxamide]",0.0109 µM
2,"COc1ccc(Cn2cc(C(=O)NCc3n[nH]c4ccc(Cl)cc34)cn2)cc1OC [Example 24, N-((5-chloro-1H-indazol-3-yl)methyl)-1-(3,4-dimethoxybenzyl)-1H-pyrazole-4-carboxamide]",0.285 µM
3,"COc1cc(Cn2cc(C(=O)NCc3n[nH]c4ccc(Cl)cc34)cn2)cc(OC)c1 [Example 25, N-((5-chloro-1H-indazol-3-yl)methyl)-1-(3,5-dimethoxybenzyl)-1H-pyrazole-4-carboxamide]",0.312 µM
4,"COc1cccc(Cn2cc(C(=O)NCc3n[nH]c4ccc(Cl)cc34)cn2)c1 [Example 26, N-((5-chloro-1H-indazol-3-yl)methyl)-1-(3-methoxybenzyl)-1H-pyrazole-4-carboxamide]",0.429 µM
5,"C[C@@H](NC(=O)c1cnn(Cc2ccc(Cn3cccn3)cc2)c1)c1cccc(Cl)c1F [Example 28, (R)-1-(4-((1H-pyrazol-1-yl)methyl)benzyl)-N-(1-(3-chloro-2-fluorophenyl)ethyl)-1H-pyrazole-4-carboxamide]",27.2 µM
6,"Cn1nnc2cc(Cn3cc(C(=O)NCc4cccc(Cl)c4)cn3)ccc21 [N-(3-chlorobenzyl)-1-((1-methyl-1H-benzo[d][1,2,3]triazol-5-yl)methyl)-1H-pyrazole-4-carboxamide]",> 30 µM
7,COc1cccc(Cn2cc(C(=O)NCc3ccc(Cl)cc3)cn2)c1 [N-(4-chlorobenzyl)-1-(3-methoxybenzyl)-1H-pyrazole-4-carboxamide],> 30 µM
8,"Cc1ccc(CNC(=O)c2cn(Cc3ccc4nc(C)ccc4c3)nn2)c(Cl)n1 [N-((2-chloro-6-methylpyridin-3-yl)methyl)-1-((2-methylquinolin-6-yl)methyl)-1H-1,2,3-triazole-4-carboxamide]",> 30 µM
9,"COc1cc(C)c(CNC(=O)c2cn(Cc3ccc4nc(C)ccc4c3)nn2)c(C)n1 [N-((6-methoxy-2,4-dimethylpyridin-3-yl)methyl)-1-((2-methylquinolin-6-yl)methyl)-1H-1,2,3-triazole-4-carboxamide]",> 30 µM

# Results, then the molecule that gave them:
row,IC50,Compound
1,0.000328 µM,"O=C(NCc1c[nH]c2ccc(Cl)cc12)c1cnn(Cc2ccc(Cn3ccccc3=O)cc2)c1 [Example 16, N-((5-chloro-1H-indol-3-yl)methyl)-1-(4-((2-oxopyridin-1(2H)-yl)methyl)benzyl)-1H-pyrazole-4-carboxamide]"
2,0.000554 µM,"O=C(NCc1n[nH]c2ccc(Cl)cc12)c1cnn(Cc2ccc(Cn3cccn3)cc2)c1 [Example 17, 1-(4-((1H-pyrazol-1-yl)methyl)benzyl)-N-((5-chloro-1H-indazol-3-yl)methyl)-1H-pyrazole-4-carboxamide]"
3,0.00439 µM,"O=C(NCc1c[nH]c2ccc(Cl)cc12)c1cnn(Cc2ccc(Cn3cccn3)cc2)c1 [Example 18, 1-(4-((1H-pyrazol-1-yl)methyl)benzyl)-N-((5-chloro-1H-indol-3-yl)methyl)-1H-pyrazole-4-carboxamide]"
4,0.0091 µM,"O=C(NCc1n[nH]c2ccc(Cl)cc12)c1cnn(Cc2ccc(CN3CCOC3=O)cc2)c1 [Example 19, N-((5-chloro-1H-indazol-3-yl)methyl)-1-(4-((2-oxooxazolidin-3-yl)methyl)benzyl)-1H-pyrazole-4-carboxamide]"
5,0.0464 µM,"O=C(NCc1n[nH]c2ccc(Cl)cc12)c1cnn(Cc2ccc(S(=O)(=O)n3cccc3)cc2)c1 [Example 21, 1-(4-((1H-pyrrol-1-yl)sulfonyl)benzyl)-N-((5-chloro-1H-indazol-3-yl)methyl)-1H-pyrazole-4-carboxamide]"
6,0.06 µM,"O=C(NCc1c[nH]c2ccc(Cl)cc12)c1cnn(Cc2ccc(CN3CCOC3=O)cc2)c1 [Example 22, N-((5-chloro-1H-indol-3-yl)methyl)-1-(4-((2-oxooxazolidin-3-yl)methyl)benzyl)-1H-pyrazole-4-carboxamide]"
7,0.134 µM,"O=C(NCc1c[nH]c2ccc(Cl)cc12)c1cnn(Cc2ccc(S(=O)(=O)n3cccc3)cc2)c1 [Example 23, 1-(4-((1H-pyrrol-1-yl)sulfonyl)benzyl)-N-((5-chloro-1H-indol-3-yl)methyl)-1H-pyrazole-4-carboxamide]"
8,0.844 µM,"O=C(NCc1cccc(Cl)c1F)c1cnn(Cc2ccc(Cn3cccn3)cc2)c1 [Example 27, 1-(4-((1H-pyrazol-1-yl)methyl)benzyl)-N-(3-chloro-2-fluorobenzyl)-1H-pyrazole-4-carboxamide]"
9,> 30 µM,COc1ccc(Cn2cc(C(=O)NCc3ccc(Cl)cc3)cn2)cc1 [N-(4-chlorobenzyl)-1-(4-methoxybenzyl)-1H-pyrazole-4-carboxamide]
